Activity calls are given as the source filed them. The rule behind the calls is not given here.
Experiments:
BV-2 = assay: Antineuroinflammatory activity in mouse BV2 cells assessed as inhibition of LPS-induced IL-1beta production after 16 hrs by ELISA; type: functional, cell-based; conditions: BV-2, 16 h
Mus musculus [1] = assay: Antialzheimer activity in Kunming mouse assessed as reversal of amyloid beta (1 to 42)-induced impairments in spartial recognition memory at 0.65 mg/kg, po qd measured on day 3 and 4 by morris water maze test; type: functional, organism-based; parameters: dose 0.65 mg/kg
Mus musculus [2] = assay: Antialzheimer activity in Kunming mouse assessed as reversal of amyloid beta (1 to 42)-induced decrease of swimming percentage of path length at 0.656 mg/kg, po qd measured on day 13 by morris water maze test; type: functional, organism-based; parameters: dose 0.656 mg/kg
Mus musculus [3] = assay: Antialzheimer activity in Kunming mouse assessed as reversal of amyloid beta (1 to 42)-induced decrease of swimming time spent in target quadrant at 0.65 mg/kg, po qd measured on day 13 by morris water maze test; type: functional, organism-based; parameters: dose 0.65 mg/kg
Mus musculus [4] = assay: Antialzheimer activity in Kunming mouse assessed as reversal of amyloid beta (1 to 42)-induced impairments in spartial recognition memory at 2.5 mg/kg, po qd measured on day 3 and 4 by morris water maze test; type: functional, organism-based; parameters: dose 2.5 mg/kg
Mus musculus [5] = assay: Antialzheimer activity in Kunming mouse assessed as reversal of amyloid beta (1 to 42)-induced decrease of swimming percentage of path length at 2.5 mg/kg, po qd measured on day 13 by morris water maze test; type: functional, organism-based; parameters: dose 2.5 mg/kg
Mus musculus [6] = assay: Antialzheimer activity in Kunming mouse assessed as reversal of amyloid beta (1 to 42)-induced decrease of swimming time spent in target quadrant at 2.5 mg/kg, po qd measured on day 13 by morris water maze test; type: functional, organism-based; parameters: dose 2.5 mg/kg
[7] = Tmax in rat brain at 2.5 mg/kg, po; type: ADME, organism-based; parameters: dose 2.5 mg/kg, route oral
[8] = Oral bioavailability in rat at 2.5 mg/kg; type: ADME, organism-based; conditions: in vivo

Row | Compound | IC50 (BV-2) [µM] | other results
1 | Cc1ccnnc1N1CCN(c2ncccn2)CC1 | > 100 | –
2 | Cc1ccc(-c2cc(C)c(N3CCN(c4ncccn4)CC3)nn2)cc1 | 17.2 | –
3 | COc1cc2c(cc1OC)C(=O)C(CC1CCN(Cc3ccccc3)CC1)C2 (configuration not stated) | – | Activity (Mus musculus [1]): Active; Activity (Mus musculus [2]): Active; Activity (Mus musculus [3]): Active
4 | Cc1cc(-c2cccc(F)c2)nnc1N1CCN(c2ncccn2)CC1 | 33.5 | –
5 | Cc1cc(C(C)C)nnc1N1CCN(c2ncccn2)CC1 | > 100 | –
6 | Cc1cc(-c2ccncc2)nnc1N1CCN(c2ncccn2)CC1 | > 100 | –
7 | Cc1cc(-c2ccsc2)nnc1N1CCN(c2ncccn2)CC1 | 2.4 | Activity (Mus musculus [4]): Active; Activity (Mus musculus [5]): Active; Activity (Mus musculus [6]): Active; Tmax [7]: 19.8 min; bioavailability [8]: 17.4%
8 | Cc1cc(-c2cc3ccccc3s2)nnc1N1CCN(c2ncccn2)CC1 | 24.9 | –
9 | Cc1cc(-c2ccc3[nH]ccc3c2)nnc1N1CCN(c2ncccn2)CC1 | 85.1 | –
10 | Cc1cc(-c2ccccc2)nnc1N1CCN(c2ncccn2)CC1 | 11.4 | –
11 | Cc1cc(-c2ccc(C(F)(F)F)cc2)nnc1N1CCN(c2ncccn2)CC1 | 37.4 | –
12 | Cc1cc(Cl)nnc1N1CCN(c2ncccn2)CC1 | > 100 | –
13 | Cc1cc(-c2ccc(F)cc2)nnc1N1CCN(c2ncccn2)CC1 | 76.3 | –

Now from value to compound, other results behind:

Row | IC50 (BV-2) [µM] | Compound | other results
14 | > 100 | Cc1cc(-c2cncnc2)nnc1N1CCN(c2ncccn2)CC1 | –
15 | > 100 | COc1ncc(-c2cc(C)c(N3CCN(c4ncccn4)CC3)nn2)c(OC)n1 | –
16 | > 100 | Cc1cc(C)c(N2CCN(c3ncccn3)CC2)nn1 | –
17 | 66.5 | Cc1cc(-c2ccnc3ccccc23)nnc1N1CCN(c2ncccn2)CC1 | –
18 | > 100 | Cc1cc(-c2cccnc2)nnc1N1CCN(c2ncccn2)CC1 | –
19 | 2.6 | COc1cccc(-c2cc(C)c(N3CCN(c4ncccn4)CC3)nn2)c1 | –
20 | 5.2 | COc1ccc(-c2cc(C)c(N3CCN(c4ncccn4)CC3)nn2)cc1 | –

From ChEMBL document CHEMBL2157953, “Identification of aminopyridazine-derived antineuroinflammatory agents effective in an Alzheimer's mouse model” (ACS Med Chem Lett, 2012)
